Results on 4 compounds are retold here after patent US9464093B2, “Substituted imidazo[4',5':4,5]cyclopenta[1,2-e]pyrrolo[1,2-a]pyrazines and oxazolo[4',5':4,5]cyclopenta[1,2-e]pyrrolo[1,2-a]pyrazines for treating brain cancer” (Mayo Foundation for Medical Education and Research, priority 2012, dated 2016).

The nature of data set [1]: CNS pharmacokinetic analysis in rats (microdialysis, CE-UV). To be noted: male, Sprague-Dawley, rat, in vivo, iv, 2.5 mg/kg. The method, then: Male Sprague-Dawley rats (Harlan, Indianapolis, Ind., USA) were used in this CNS pharmacokinetic study on Agelastatin A and its three analogues (CAA, CEAA, and DCEAA). Six rats were used for each drug. The rats were approximately 2 months old and weighed 300±25 g at the beginning of the study. All rats were housed in a temperature-controlled room (23±2° C.) with a 12:12 light dark cycle (lights off at 6:00 pm). Purina 5001 Rodent Chow and tap water were available ad libitum at all times.
Rats were anesthetized with gasiform isoflurane (1% isoflurane in a mixture of 20% oxygen and 80% nitrogen gas) and immobilized in a stereotaxic frame (KOPF Instruments, Tujunga, Calif.). Anesthesia was maintained during the entire procedure. The guide cannula (CMA Microdialysis Inc., Acton, Mass.) was stereotactically implanted into the lateral ventricle (AP −0.9, L 1.6, V 3.4, relative to bregma and skull), and then secured to the skull by screws and dental cement. Following surgery, each rat was housed individually with food and water ad libitum for 3 days for recovery from cannulation surgery. Microdialysis experiments were carried out on conscious, freely moving rats. On the day of the experiment, the stylet in the guide cannula was replaced with the microdialysis probe (CMA/11 with 4 mm membrane, CMA Microdialysis Inc., Acton, Mass.) and a vascular microdialysis probe (CMA/20 with 4 mm membrane, CMA Microdialysis Inc, Acton, Mass.)) was implanted into a jugular vein. The probes had inlet tubes connected to syringes to deliver artificial cerebrospinal fluid (146 mM NaCl, 1.2 mM CaCl2, 3 mM KCl, 1 mM MgCl2, 1.9 mM Na2HPO4, 0.1 mM NaH2PO4, pH 7.4) into the ventricle and Dulbecco's phosphate-buffered saline (D-PBS) into the blood at 0.5 μl/min flow rate. […]
The drug concentration in the microdialysate was measured by CE-UV (Agilent 3D CE). […] The absorbance from the drug was detected with UV at 280 nm. […]
Two-way repeated measures ANOVA followed by Tukey's test was used. […] CNS penetration is determined as the ratio of CSF and blood area under the curve (AUC).

Data set [2] concerns NFkB signaling. Briefly: In vivo NFkB signaling of Raji cells implanted in murine brain (BLI). To be noted: 2.5 mg/kg and 5 mg/kg intraperitoneally the day after implantation. The arrangement: species or system athymic mice. On the procedure: An in-vivo experiment was also performed to assess impact of Agelastatin A on NFkB signaling in Raji cells implanted inside the murine brain. In serum free medium, Raji cells were transfected with NFkB reporter system. 25,000 cells were intracerebrally injected into athymic mice. […] Bioluminescence imaging (BLI) of NFkB activity of intracerebral Raji lymphoma cells were measured on day 4 post intracerebral implantation.

In data set [3] the test system is NFkB signaling. Briefly: NFkB reporter assay in Raji cells. The format is cell-based. To be noted: 100 nM and 500 nM for 48 hours. The text has this: 10^5 Raji cells were co-transfected overnight with a Cignal firefly luciferase-expressing NFkB reporter plasmid (NFkBr; SA Biosciences) together with a constitutively expressed Renilla luciferase reporter plasmid containing a CMV promoter. A promoterless vector (Neg-Luc) was co-transfected with the Renilla reporter for control. […] Data are presented as a ratio of firefly-to-Renilla luciferase luminescence.
For orientation: A reporter such as luciferase makes a cellular process visible.

Data set [4] concerns Raji lymphoma cells. The data set can be described thus: Intracerebral dissemination of lymphoma cells (CD20 IHC). In kind it is in vivo, athymic mice. The text has this:
Paraffin sections (10 μm thick) were fixed and mounted onto glass slides, blocked, and immunostained with antibody to CD20 to identify B lymphoma cells.
Murine brains harvested from the in-vivo experiments to assess the pre-clinical therapeutic activity of AA were studied by IHC. CD20-positive lymphoma cells were counted in the cerebral hemisphere contralateral to the tumor implantation side for dissemination in lateral, anterior, and posterior directions by ScanScope XT slide scanner and image analysis system (Aperio Spectrum, Vista, Calif.). One-way ANOVA was used to determine the statistical significance of the difference between the treated group and untreated control group.

The subject of data set [5] is Raji lymphoma cells. Briefly: Ex vivo murine brain slice invasion assay. In kind it is cell-based. Particulars: cells pretreated with 100 nM for four days; day 5 post-incubation; vs DMSO. The method, then:
The impact of Agelastatin A on the brain invasiveness of Raji B lymphoma cells was assessed ex vivo using a modified murine brain slice invasion assay. Briefly, these cells were first pre-transfected with luciferase (SP-DiI; Molecular Probes) just prior to invasion assays. Slice cultures of whole brains were produced from C57 mice. Two-month-old male C57BL/6J mice were sacrificed by CO2 inhalation. Mice brains were removed, placed into sterile ice-cold PBS, and then coronally sectioned with a 1 mm coronal brain matrix into 1 mm slices at +2.00 to −1.00 bregma. Brain slices were placed aseptically onto transwell (8 μm pore size) membranes in six-well dishes. Culture media (DMEM, 10% FCS, […], 100 U/ml penicillin, 100 μg/ml streptomycin, and 2.5 μg/ml amphotericin B) was added into each well to a point just below that which would cover the brain slice. […] Cells were allowed to attach to the brain surface for one hour before the media was adjusted to just cover the surface of the slice. After 5 days incubation, the extent of lymphoma cell invasion into the brain slice was quantitated by bioluminesence imaging (BLI) in both slice and media. Brain slices were fixed in 4% paraformaldehyde for CD20 staining to identify Raji cells, which had invaded the brain slices. […]

For the next data set, the system named is osteopontin. Briefly: Osteopontin secretion ELISA in Raji cells. The format is cell-based, human. Particulars: culture medium, four days. On the procedure:
10^5 Raji lymphoma cells were seeded in 5 ml media in 6-well plates in triplicate and were grown for four days. Cells were pelleted and the media was collected for analysis. Duplicate four hundred microliters of media supernatant were assayed for osteopontin by ELISA using Quantikine human osteopontin ELISA kit (R&D Systems, Inc., Minneapolis, Minn.). Statistical analysis was performed using two-tailed Student's T-Test.
For orientation: An ELISA detects its analyte on a solid surface through an enzyme-linked reagent.

Entries after “also recorded” stand apart in the source; their conditions may differ.

Regarding `CN1C(=O)N[C@H]2[C@@H]3NC(=O)c4ccc(Cl)n4[C@@H]3C[C@]21O` [CAA, chloroagelastatin A], the Kp in data set [1] stood at 0.16.
In data set [1], `CCN1C(=O)N[C@H]2[C@@H]3NC(=O)c4ccc(Cl)n4[C@@H]3C[C@]21O` [CEAA, chloroethylagelastatin A] displayed a Kp of 0.27.
The same measure, in the same setting: with `CCN1C(=O)N[C@H]2[C@@H]3NC(=O)c4cc(Cl)c(Cl)n4[C@@H]3C[C@]21O` [DCEAA, dichloroethylagelastatin A] the figure was 0.307.
For `CN1C(=O)N[C@H]2[C@@H]3NC(=O)c4ccc(Br)n4[C@@H]3C[C@]21O` [AA, agelastatin A, reference compound], in the data set with NFkB signaling [2], the “NFkB signaling activity of Raji cells implanted in the murine brain (BLI)” value is “can impact the molecular signaling activity (NFkB signaling pathway) in a brain tumor; also recorded: decreased the NFkB signaling activity”. In addition, the “NFkB signaling in Raji cells (reporter assay)” value with NFkB signaling [3] is given as “significantly downregulated NFkB signaling; also recorded: attenuates the NFkB signaling”. Also, the “lateral dissemination of lymphoma cells” value in the data set with Raji lymphoma cells [4] (T2 (2.5 mg/kg i.p.) and T3 (5 mg/kg i.p.) groups) is given as “decreased lateral dissemination of lymphoma cells”. Moreover, the “lymphoma cell dissemination in the anterior and posterior direction” value in the data set with Raji lymphoma cells [4] (all the treatment groups (1, 2.5, 5 mg/kg i.p.)) is reported as “Dissemination of lymphoma cells was decreased”. The “dissemination of lymphoma cells in the brain” value in the data set on Raji lymphoma cells [4] (contralateral brain hemisphere, CD20 IHC) is listed as “significantly decreased dissemination of lymphoma cells in the brain; also recorded: decreases the dissemination of Raji lymphoma cells inside the brain”. The “brain invasiveness of Raji lymphoma cells (ex vivo brain slice)” value with Raji lymphoma cells [5] was “significantly decreased and disabled the brain invasiveness; also recorded: decreases the brain invasiveness of Raji lymphoma cells; also recorded: No AA-treated lymphoma cells were found in the brain slice”. In the data set on osteopontin, the “OPN secretion by Raji cells (ELISA)” value is “significantly decreased secretion of osteopontin; also recorded: decreases OPN secretion”.
